Some test systems named below: A549 NSCLC; SK-MEL-2 melanoma; OVCAR-4 ovarian; NCI-H522 lung; A498 renal.
Experiment in all cases: inhibition of tumour cell growth, NCI panel, 48 h

Molecules are shown by their SMILES.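 Grown in 96-well plates, cells were treated for 48 hours with each compound at five concentrations. Insufficient inhibition: endpoint recorded as highest concentration tested. TGI: total growth inhibition.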 Where a SMILES comes first, the peptide text is derived from it. [ ]: non-standard residue; d: D form. The star is where a group is joined. ξ: configuration not given here. Propanoyl(3-(4-MeO-Ph)) = COc1ccc(CCC(=O)*)cc1; Thr(3ξ) = CC(O)[C@H](N)C(=O)O; dNMeL = CN[C@H](CC(C)C)C(=O)O; Boc = CC(C)(C)OC(=O)*; OBn = c1ccc(CO*)cc1; ξLac = CC(O)C(=O)O

Regarding `CC(NC(=O)C(N)CC(=O)O)NC(=O)N1CCOCC1` (stereo not given), the TGI in the assay with A549 NSCLC, with SK-MEL-2 melanoma, in the assay with OVCAR-4 ovarian, in the assay with NCI-H522 lung and in the assay on A498 renal was greater than 100 µM throughout.

Consider `Cc1ccc([N+](=O)[O-])cc1S(=O)(=O)Nc1ccc(C2=NNC(c3cccs3)C2)cc1` (stereo not given), for which the TGI in the assay with A549 NSCLC is greater than 100 µM; in the assay with SK-MEL-2 melanoma it was greater than 100 µM; with OVCAR-4 ovarian, greater than 100 µM; in the assay with NCI-H522 lung, greater than 100 µM; in the assay with A498 renal it was 93.1 µM.

`Cc1ccc2cccc3c2c1CC1(C3=O)S(=O)(=O)OCCOS1(=O)=O`: the TGI with A549 NSCLC, in the assay on SK-MEL-2 melanoma, in the assay with OVCAR-4 ovarian, in the assay on NCI-H522 lung and in the assay with A498 renal was greater than 100 µM throughout.

Regarding `N#CC(N=Nc1ccccc1)c1nc2ccccc2o1` (stereo not given), the TGI with A549 NSCLC is greater than 100 µM; in the assay with SK-MEL-2 melanoma, 70.5 µM; in the assay with OVCAR-4 ovarian, 37.9 µM; in the assay with NCI-H522 lung, greater than 100 µM; in the assay with A498 renal, greater than 100 µM.

Regarding `O=c1c(-c2ccccc2Cl)coc2cc(F)ccc12`, the TGI in the assay with A549 NSCLC is greater than 100 µM; in the assay on SK-MEL-2 melanoma it was greater than 100 µM; in the assay with OVCAR-4 ovarian, greater than 100 µM; with NCI-H522 lung, 36.5 µM; in the assay on A498 renal it was 47.2 µM.

For `CC(C)CC1[C@@H](OCc2ccccc2)COS(=O)(=O)N1Cc1ccccc1` (stereo not given in full), the TGI with A549 NSCLC, in the assay with SK-MEL-2 melanoma, with OVCAR-4 ovarian, in the assay on NCI-H522 lung and in the assay with A498 renal was greater than 100 µM each time.

Turning to `Cc1ccc(S(=O)(=O)/N=C(\[O-])C2=C(c3ccccc3)NN(C)c3nc4cccc[n+]4nc32)cc1`, the TGI in the assay on A549 NSCLC, in the assay on SK-MEL-2 melanoma, in the assay on OVCAR-4 ovarian, in the assay on NCI-H522 lung and with A498 renal was greater than 100 µM each time.

Turning to `Nn1c(SCC(=O)NCc2ccccc2)nc2ccccc2c1=O`, the TGI with A549 NSCLC, in the assay with SK-MEL-2 melanoma, in the assay with OVCAR-4 ovarian, in the assay with NCI-H522 lung and in the assay with A498 renal was greater than 100 µM in each case.

On to `NCCCc1c(-c2ccccc2)nc(N)[nH]c1=O`, for which the TGI in the assay with A549 NSCLC, in the assay with SK-MEL-2 melanoma, with OVCAR-4 ovarian, in the assay on NCI-H522 lung and in the assay with A498 renal was greater than 100 µM in each case.

With `O=c1c(O)c(-c2cc(O)c(O)cc2O)oc2cc(O)c(C3OC(CO)C(O)C(O)C3O)c(O)c12` (stereo not given), the TGI in the assay on A549 NSCLC, in the assay with SK-MEL-2 melanoma, in the assay on OVCAR-4 ovarian, in the assay with NCI-H522 lung and in the assay with A498 renal was greater than 100 µM each time.

Regarding `COC(=O)[C@H](Cc1ccccc1)NP(=O)(O)OCC1OC(n2cc(C)c(=O)[nH]c2=O)CC1N=[N+]=[N-]` (stereo not given in full), the TGI in the assay on A549 NSCLC, in the assay with SK-MEL-2 melanoma, with OVCAR-4 ovarian, in the assay on NCI-H522 lung and in the assay with A498 renal was greater than 100 µM in each case.

For the compound `O=S(=O)(O)c1ccc2c(N=Nc3ccccc3Cl)c(O)ccc2c1`, the TGI with A549 NSCLC, with SK-MEL-2 melanoma, in the assay on OVCAR-4 ovarian, in the assay with NCI-H522 lung and with A498 renal was greater than 100 µM each time.

As to `COc1cc(C2SCC(=O)N2c2ccc(Cl)cc2)cc(I)c1O` (stereo not given), the TGI is greater than 100 µM in the assay on A549 NSCLC; greater than 100 µM in the assay on SK-MEL-2 melanoma; greater than 67.5 µM in the assay on OVCAR-4 ovarian; greater than 100 µM in the assay on NCI-H522 lung; greater than 23.2 µM with A498 renal.

Regarding `COc1ccc(C2SCC(=O)N2NC(=O)C(C)Oc2ccccc2Cl)cc1` (stereo not given), the TGI is greater than 100 µM in the assay on A549 NSCLC; 50 µM with SK-MEL-2 melanoma; greater than 100 µM in the assay on OVCAR-4 ovarian; greater than 100 µM in the assay on NCI-H522 lung; 92.2 µM in the assay on A498 renal.

For `O=c1[nH]c2ccc(CC(=S)N3CCN(c4ccccc4)CC3)cc2o1`, the TGI in the assay on A549 NSCLC, in the assay with SK-MEL-2 melanoma, in the assay on OVCAR-4 ovarian, in the assay on NCI-H522 lung and in the assay on A498 renal was greater than 100 µM each time.

Turning to `Cc1ccc(O)c(-c2csc(NCN3CCN(CNc4nc(-c5cc(C)ccc5O)cs4)CC3)n2)c1`, the TGI in the assay on A549 NSCLC, with SK-MEL-2 melanoma, with OVCAR-4 ovarian, with NCI-H522 lung and with A498 renal was greater than 100 µM in each case.

Take `CC(=N/NC(=S)N1CCCCC1)/C(C)=N\NC(=S)N1CCCCC1`: the TGI worked out at 4.04 µM in the assay with A549 NSCLC; 4.65 µM with SK-MEL-2 melanoma; 3.46 µM with OVCAR-4 ovarian; 4.74 µM with NCI-H522 lung; 2.86 µM in the assay on A498 renal.

Regarding `CC1(C)N=C(/C=N/O)C(C)(C)N1O`, the TGI with A549 NSCLC, in the assay on SK-MEL-2 melanoma, in the assay on OVCAR-4 ovarian, in the assay with NCI-H522 lung and in the assay on A498 renal was greater than 100 µM throughout.

Regarding `COc1ccc(CCC(=O)OC(C)[C@H](NC(=O)[C@@H](CC(C)C)N(C)C(=O)[C@@H]2CCCN2C(=O)C(C)O)C(=O)OCc2ccccc2)cc1` (stereo not given in full) (H-[ξLac]P[dNMeL][Thr(3ξ)](Propanoyl(3-(4-MeO-Ph)))-OBn), the TGI with A549 NSCLC was greater than 100 µM; in the assay on SK-MEL-2 melanoma, 36.9 µM; with OVCAR-4 ovarian it was greater than 100 µM; with NCI-H522 lung it was 50.4 µM; in the assay with A498 renal, greater than 100 µM.

For the compound `O=CC1OC(=O)c2cc(O)c(O)c(O)c2-c2c(cc(O)c(O)c2O)C(=O)OC1C(O)C(O)CO` (stereo not given), the TGI was greater than 100 µM in the assay on A549 NSCLC; greater than 100 µM in the assay with SK-MEL-2 melanoma; 37.8 µM in the assay on OVCAR-4 ovarian; greater than 100 µM with NCI-H522 lung; greater than 100 µM in the assay on A498 renal.

Take `O=C(/C=C/c1cccs1)c1cccc(C(=O)/C=C/c2cccs2)n1`: the TGI in the assay with A549 NSCLC, in the assay on SK-MEL-2 melanoma, in the assay on OVCAR-4 ovarian, with NCI-H522 lung and with A498 renal was greater than 100 µM throughout.

As to `CCOCC(NC(=O)C(CC(C)C)NC(=O)OC(C)(C)C)C(N)=O` (stereo not drawn) (Boc-Leu-Ser(Et)-NH2; configuration not given here), the TGI with A549 NSCLC, in the assay on SK-MEL-2 melanoma, in the assay on OVCAR-4 ovarian, with NCI-H522 lung and with A498 renal was greater than 100 µM each time.

Regarding `COc1ccc(C(C#N)NCCCCCCNC(C#N)c2ccc(OC)cc2)cc1` (stereo not given), the TGI with A549 NSCLC, in the assay with SK-MEL-2 melanoma, with OVCAR-4 ovarian, in the assay on NCI-H522 lung and in the assay with A498 renal was greater than 100 µM in each case.

With `C=Cc1cc2c(cc1O)CC[C@@H]1[C@@H]2CC[C@]2(C)[C@@H](O)CC[C@@H]12`, the TGI amounted to 19.9 µM in the assay on A549 NSCLC; 21.1 µM in the assay on SK-MEL-2 melanoma; 26.9 µM in the assay on OVCAR-4 ovarian; 20.6 µM with NCI-H522 lung; 39.1 µM in the assay on A498 renal.

With `CC(C)NC(=O)OCc1c(COC(=O)NC(C)C)c(-c2ccc[n+](COC(=O)C3CC3)c2)n2c1CCC2`, the TGI in the assay with A549 NSCLC is greater than 100 µM; with SK-MEL-2 melanoma, greater than 100 µM; in the assay on OVCAR-4 ovarian, greater than 100 µM; in the assay on NCI-H522 lung, 63.1 µM; with A498 renal it was 88.1 µM.

As to `O=C(CN1CCOCC1)CC(O)(C(F)(F)F)C(F)(F)F`, the TGI in the assay with A549 NSCLC, in the assay on SK-MEL-2 melanoma, in the assay with OVCAR-4 ovarian, with NCI-H522 lung and in the assay with A498 renal was greater than 100 µM each time.

In the case of `NC12CC3CC4C1CC1CC2C(C3)C4(N)C1`, the TGI in the assay with A549 NSCLC, with SK-MEL-2 melanoma, in the assay on OVCAR-4 ovarian, in the assay with NCI-H522 lung and in the assay on A498 renal was greater than 100 µM each time.

Values taken from PubChem BioAssay (NCI).
